System: NQO1
Experiment: NQO1/NADH/NAC cell-free reaction in 96-well plate: oxygen consumption rate (Seahorse XF Analyzer) and hydrogen peroxide produced (absorption at 240 nm)
Format: biochemical
Description: Referring now to FIG. 1C-1D, data graphs are provided illustrating the results of one sample experiment for hydrogen peroxide produced using the one or more embodiments of the present disclosure described herein. In particular, FIG. 1C illustrates the generation of superoxide radicals by using the Oxygen Consumption Rate (OCR) with respect to time as a proxy for one experiment. Here, the experiment comprised using a Seahorse Bioscience XF Analyzer® instrument to measure the OCR with respect to time. In addition, a 96-well plate was used wherein each well was filled with 140 microliters of 100 units of NQO1, NADH, 4 micromolar NAC (β-Lacaphone), 50 millimolar Tris-HCl at pH 7 wherein the solutions were kept at atmospheric temperature. […] Further, at the conclusion of this 7-hour period, approximately […] hydrogen peroxide was produced and measured. […] Specifically, referring to FIG. 1D, the hydrogen peroxide concentration was measured using a spectrophotometric absorption of 240 nm corresponding to hydrogen peroxide.

CC1(C)CCC2=C(O1)c1ccccc1C(=O)C2=O [β-lapachone]
resulting hydrogen peroxide concentration (7-hour run cycle, spectrophotometric absorption 240 nm): > 30% | Oxygen Consumption Rate (OCR) with respect to time, proxy for generation of superoxide radicals (100 units NQO1, NADH, 4 micromolar NAC, 50 millimolar Tris-HCl pH 7, atmospheric temperature, 7-hour period, measured every 2 minutes, versus DMSO vehicle control wells): dramatically increased and sustained OCR | hydrogen peroxide produced and measured (at conclusion of 7-hour period, 100 units NQO1, NADH, 4 micromolar NAC, 50 millimolar Tris-HCl pH 7, spectrophotometric absorption 240 nm): approximately 12 molar
